From ChEMBL document CHEMBL5537191, “Rebamipide and Derivatives are Potent, Selective Inhibitors of Histidine Phosphatase Activity of the Suppressor of T Cell Receptor Signaling Proteins” (J Med Chem, 2024)
Active and inactive are the calls of the source. The rule behind the calls is not given here.

How the values were obtained:
[1] = species on record: Homo sapiens; experiment: Inhibition of recombinant STS-1 W505L mutant HP domain (unknown origin)
[2] = molecular target: T1, Receptor-type tyrosine-protein phosphatase C (Homo sapiens) (UniProt P08575); experiment: Inhibition of recombinant human CD45 (604 to 1304 residues) phosphatase activity expressed in baculovirus infected Sf9 incubated for 20 mins by spectrophotometric analysis
T1 sequence (whole entry): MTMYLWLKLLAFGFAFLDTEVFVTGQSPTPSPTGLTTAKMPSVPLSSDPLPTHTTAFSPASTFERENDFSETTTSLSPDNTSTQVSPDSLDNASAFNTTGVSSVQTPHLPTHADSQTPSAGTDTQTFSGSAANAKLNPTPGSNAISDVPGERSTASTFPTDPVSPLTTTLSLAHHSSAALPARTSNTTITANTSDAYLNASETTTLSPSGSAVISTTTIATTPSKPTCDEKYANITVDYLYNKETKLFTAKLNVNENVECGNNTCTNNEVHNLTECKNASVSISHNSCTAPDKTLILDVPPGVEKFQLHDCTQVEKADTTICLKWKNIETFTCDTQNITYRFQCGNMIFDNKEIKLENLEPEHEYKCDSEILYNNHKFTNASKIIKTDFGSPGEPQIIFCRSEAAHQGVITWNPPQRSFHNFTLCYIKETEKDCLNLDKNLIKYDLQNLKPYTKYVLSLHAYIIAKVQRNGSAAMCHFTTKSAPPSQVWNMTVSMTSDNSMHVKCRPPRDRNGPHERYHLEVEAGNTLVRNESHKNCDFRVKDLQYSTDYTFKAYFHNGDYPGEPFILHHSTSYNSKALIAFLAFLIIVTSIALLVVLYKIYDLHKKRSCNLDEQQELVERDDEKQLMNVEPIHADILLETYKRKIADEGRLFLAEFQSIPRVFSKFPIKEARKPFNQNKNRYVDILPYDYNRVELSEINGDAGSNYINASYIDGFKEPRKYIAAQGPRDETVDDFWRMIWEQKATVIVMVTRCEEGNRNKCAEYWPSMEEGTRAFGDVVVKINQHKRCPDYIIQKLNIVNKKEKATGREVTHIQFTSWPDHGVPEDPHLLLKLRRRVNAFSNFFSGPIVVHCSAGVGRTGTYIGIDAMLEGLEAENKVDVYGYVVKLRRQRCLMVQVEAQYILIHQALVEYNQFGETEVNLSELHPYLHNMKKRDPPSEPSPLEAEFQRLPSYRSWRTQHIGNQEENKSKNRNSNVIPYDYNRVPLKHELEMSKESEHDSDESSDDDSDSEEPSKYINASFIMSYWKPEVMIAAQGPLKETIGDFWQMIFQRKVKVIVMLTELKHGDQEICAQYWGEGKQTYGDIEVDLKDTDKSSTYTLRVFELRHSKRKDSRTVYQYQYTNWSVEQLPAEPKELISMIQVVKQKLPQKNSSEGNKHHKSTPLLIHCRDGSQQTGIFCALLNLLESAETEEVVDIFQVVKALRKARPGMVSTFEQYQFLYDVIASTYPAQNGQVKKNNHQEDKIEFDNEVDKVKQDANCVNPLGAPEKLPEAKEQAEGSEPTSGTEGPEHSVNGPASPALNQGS

[3] = molecular target: T2, Tyrosine-protein phosphatase non-receptor type 1 (Homo sapiens) (UniProt P18031); experiment: Inhibition of recombinant human PTP-1B (1 to 321 residues) phosphatase activity expressed in Escherichia coli incubated for 20 mins by spectrophotometric analysis
T2 sequence (whole entry): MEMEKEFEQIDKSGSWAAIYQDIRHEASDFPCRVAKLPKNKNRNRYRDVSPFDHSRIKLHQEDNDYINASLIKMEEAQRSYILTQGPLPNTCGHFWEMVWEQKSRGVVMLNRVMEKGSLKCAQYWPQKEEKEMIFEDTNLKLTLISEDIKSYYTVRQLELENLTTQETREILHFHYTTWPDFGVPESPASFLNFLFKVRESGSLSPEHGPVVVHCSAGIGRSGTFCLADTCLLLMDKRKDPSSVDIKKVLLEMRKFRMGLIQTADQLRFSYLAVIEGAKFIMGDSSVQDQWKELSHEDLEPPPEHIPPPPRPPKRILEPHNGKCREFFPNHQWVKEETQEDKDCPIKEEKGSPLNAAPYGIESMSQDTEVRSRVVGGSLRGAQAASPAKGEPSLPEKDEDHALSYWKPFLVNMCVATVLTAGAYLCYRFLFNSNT

[4] = molecular target: Tyrosine-protein phosphatase non-receptor type 6 (Homo sapiens) (UniProt P29350); experiment: Inhibition of recombinant human SHP1 (243 to 541 residues) phosphatase activity expressed in Escherichia coli incubated for 20 mins by spectrophotometric analysis
[5] = molecular target: T3, Ubiquitin-associated and SH3 domain-containing protein A (Homo sapiens) (UniProt P57075); experiment: Inhibition of human STS-2 HP domain (396 to 657 residues) phosphatase activity expressed in Escherichia coli BL21 (DE3) incubated for 20 mins by spectrophotometric analysis
T3 sequence (whole entry): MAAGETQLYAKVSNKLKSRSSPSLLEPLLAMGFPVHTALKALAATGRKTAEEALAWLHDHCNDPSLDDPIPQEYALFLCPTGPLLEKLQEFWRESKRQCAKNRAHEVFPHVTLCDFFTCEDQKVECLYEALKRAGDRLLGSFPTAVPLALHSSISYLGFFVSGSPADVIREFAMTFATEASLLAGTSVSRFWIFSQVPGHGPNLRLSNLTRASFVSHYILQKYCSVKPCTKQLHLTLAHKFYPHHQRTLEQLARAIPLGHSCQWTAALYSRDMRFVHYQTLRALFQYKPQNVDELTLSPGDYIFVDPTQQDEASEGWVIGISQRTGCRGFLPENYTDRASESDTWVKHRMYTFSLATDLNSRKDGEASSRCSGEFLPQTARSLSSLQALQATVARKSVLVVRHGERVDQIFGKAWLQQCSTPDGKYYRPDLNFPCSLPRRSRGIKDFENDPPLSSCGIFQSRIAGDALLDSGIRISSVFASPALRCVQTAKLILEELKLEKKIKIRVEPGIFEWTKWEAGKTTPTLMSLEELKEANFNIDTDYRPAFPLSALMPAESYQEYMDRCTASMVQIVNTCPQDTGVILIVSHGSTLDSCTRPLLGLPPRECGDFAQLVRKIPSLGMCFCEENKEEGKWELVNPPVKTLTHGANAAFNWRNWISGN

Sequence of Tyrosine-protein phosphatase non-receptor type 6 (Homo sapiens) (P29350 whole entry, the tested form may be a part): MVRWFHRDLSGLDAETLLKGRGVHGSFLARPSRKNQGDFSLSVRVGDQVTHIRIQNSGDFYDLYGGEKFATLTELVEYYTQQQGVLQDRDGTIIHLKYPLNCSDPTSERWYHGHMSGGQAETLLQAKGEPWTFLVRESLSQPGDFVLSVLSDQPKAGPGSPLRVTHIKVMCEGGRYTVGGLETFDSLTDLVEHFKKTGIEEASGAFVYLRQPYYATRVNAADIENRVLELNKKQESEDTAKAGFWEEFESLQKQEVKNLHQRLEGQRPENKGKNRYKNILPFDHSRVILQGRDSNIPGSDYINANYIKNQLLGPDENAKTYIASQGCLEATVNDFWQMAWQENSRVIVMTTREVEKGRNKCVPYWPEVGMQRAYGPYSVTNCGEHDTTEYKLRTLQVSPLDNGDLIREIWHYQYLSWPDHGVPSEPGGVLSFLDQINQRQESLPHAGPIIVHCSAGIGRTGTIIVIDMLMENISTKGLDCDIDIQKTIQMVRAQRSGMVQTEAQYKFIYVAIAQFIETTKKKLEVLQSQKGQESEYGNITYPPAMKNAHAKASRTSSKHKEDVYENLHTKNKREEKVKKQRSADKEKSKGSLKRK

With `O=C(NC(Cc1cc(=O)[nH]c2ccccc12)C(=O)O)c1ccc(Cl)cc1` (stereo not given) the inhibition [1] was “inactive”, the inhibition [2] was “inactive” and the inhibition [3] was “inactive”. The inhibition [4] was “inactive” and the inhibition [5] was “Active”.
